Experimental data published in PubChem BioAssay (NCI).
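Five concentrations, 48 hours, 96-well plates. The concentration for 50% growth inhibition is given as GI50. TGI marks complete inhibition of growth.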

Assays:
Assay in all cases: DTP human tumour cell line panel, 48 h
SW-620 colon = tested on: SW-620 colon
COLO 205 colon = tested on: COLO 205 colon
M14 melanoma = tested on: M14 melanoma
MOLT-4 leukemia = tested on: MOLT-4 leukemia
U251 CNS = tested on: U251 CNS
OVCAR-4 ovarian = tested on: OVCAR-4 ovarian
LOX IMVI melanoma = tested on: LOX IMVI melanoma
MDA-MB-231 breast = tested on: MDA-MB-231 breast
HT29 colon = tested on: HT29 colon
T-47D breast = tested on: T-47D breast
UACC-62 melanoma = tested on: UACC-62 melanoma
DU-145 prostate = tested on: DU-145 prostate
OVCAR-5 ovarian = tested on: OVCAR-5 ovarian
HOP-92 NSCLC = tested on: HOP-92 NSCLC
SF-268 CNS = tested on: SF-268 CNS
UO-31 renal = tested on: UO-31 renal
UACC-257 melanoma = tested on: UACC-257 melanoma
HCC-2998 colon = tested on: HCC-2998 colon
SF-295 CNS = tested on: SF-295 CNS
PC-3 prostate = tested on: PC-3 prostate
OVCAR-3 ovarian = tested on: OVCAR-3 ovarian
MDA-MB-435 = tested on: MDA-MB-435
SR leukemia = tested on: SR leukemia
SN12C renal = tested on: SN12C renal
SK-OV-3 ovarian = tested on: SK-OV-3 ovarian
HOP-62 NSCLC = tested on: HOP-62 NSCLC
NCI-H460 lung = tested on: NCI-H460 lung
EKVX NSCLC = tested on: EKVX NSCLC
CCRF-CEM leukemia = tested on: CCRF-CEM leukemia
KM12 colon = tested on: KM12 colon
HCT-116 colon = tested on: HCT-116 colon
786-0 renal = tested on: 786-0 renal
SK-MEL-28 melanoma = tested on: SK-MEL-28 melanoma
OVCAR-8 ovarian = tested on: OVCAR-8 ovarian
BT-549 breast = tested on: BT-549 breast
SNB-75 CNS = tested on: SNB-75 CNS
TK-10 renal = tested on: TK-10 renal
SNB-19 CNS = tested on: SNB-19 CNS
SK-MEL-5 melanoma = tested on: SK-MEL-5 melanoma
NCI/ADR-RES ovarian = tested on: NCI/ADR-RES ovarian
HL-60(TB) leukemia = tested on: HL-60(TB) leukemia
NCI-H23 lung = tested on: NCI-H23 lung
A549 NSCLC = tested on: A549 NSCLC
MCF7 breast = tested on: MCF7 breast
SF-539 CNS = tested on: SF-539 CNS
NCI-H522 lung = tested on: NCI-H522 lung
K-562 leukemia = tested on: K-562 leukemia
IGROV1 ovarian = tested on: IGROV1 ovarian
HCT-15 colon = tested on: HCT-15 colon
A498 renal = tested on: A498 renal
MALME-3M melanoma = tested on: MALME-3M melanoma
SK-MEL-2 melanoma = tested on: SK-MEL-2 melanoma
RXF 393 renal = tested on: RXF 393 renal
ACHN renal = tested on: ACHN renal
NCI-H226 lung = tested on: NCI-H226 lung
RPMI-8226 leukemia = tested on: RPMI-8226 leukemia

## c1cc2sc1CSCCSCCSC2
SW-620 colon
  TGI: > 100000 nM
COLO 205 colon
  TGI: > 100000 nM
M14 melanoma
  TGI: > 100000 nM
MOLT-4 leukemia
  TGI: > 100000 nM
U251 CNS
  TGI: > 100000 nM
OVCAR-4 ovarian
  TGI: > 100000 nM
LOX IMVI melanoma
  TGI: > 100000 nM
MDA-MB-231 breast
  TGI: > 100000 nM
HT29 colon
  TGI: > 100000 nM
T-47D breast
  TGI: > 100000 nM
UACC-62 melanoma
  TGI: > 100000 nM
DU-145 prostate
  TGI: > 100000 nM
OVCAR-5 ovarian
  TGI: > 100000 nM
HOP-92 NSCLC
  TGI: > 100000 nM
SF-268 CNS
  TGI: > 100000 nM
UO-31 renal
  TGI: > 100000 nM
UACC-257 melanoma
  TGI: > 100000 nM
HCC-2998 colon
  TGI: > 100000 nM
SF-295 CNS
  TGI: > 100000 nM
PC-3 prostate
  TGI: > 100000 nM
OVCAR-3 ovarian
  TGI: > 100000 nM
MDA-MB-435
  TGI: > 100000 nM
SR leukemia
  TGI: > 100000 nM
SN12C renal
  TGI: > 100000 nM
SK-OV-3 ovarian
  TGI: > 100000 nM
HOP-62 NSCLC
  TGI: > 100000 nM
NCI-H460 lung
  TGI: > 100000 nM
EKVX NSCLC
  TGI: > 100000 nM
CCRF-CEM leukemia
  TGI: > 100000 nM
KM12 colon
  TGI: > 100000 nM
HCT-116 colon
  TGI: > 100000 nM
786-0 renal
  TGI: > 100000 nM
SK-MEL-28 melanoma
  TGI: > 100000 nM
OVCAR-8 ovarian
  TGI: > 100000 nM
BT-549 breast
  TGI: > 100000 nM
SNB-75 CNS
  TGI: > 100000 nM
TK-10 renal
  TGI: > 100000 nM
SNB-19 CNS
  TGI: > 100000 nM
SK-MEL-5 melanoma
  TGI: > 100000 nM
NCI/ADR-RES ovarian
  TGI: > 100000 nM
HL-60(TB) leukemia
  TGI: > 100000 nM
NCI-H23 lung
  TGI: > 100000 nM
A549 NSCLC
  TGI: > 100000 nM
MCF7 breast
  TGI: > 100000 nM
SF-539 CNS
  TGI: > 100000 nM
NCI-H522 lung
  TGI: > 100000 nM
K-562 leukemia
  TGI: > 100000 nM
IGROV1 ovarian
  TGI: > 100000 nM
HCT-15 colon
  TGI: > 100000 nM

## O=[N+]([O-])c1ccc2scc3c4ccccc4nc-3c2c1
SW-620 colon
  GI50: 462 nM
  TGI: 1700 nM
COLO 205 colon
  GI50: 1790 nM
  TGI: 3520 nM
M14 melanoma
  GI50: 1850 nM
  TGI: 3580 nM
U251 CNS
  GI50: 600 nM
  TGI: 2000 nM
OVCAR-4 ovarian
  GI50: 1670 nM
  TGI: 3220 nM
LOX IMVI melanoma
  GI50: 1360 nM
  TGI: > 100000 nM
MDA-MB-231 breast
  GI50: 1650 nM
  TGI: 3220 nM
HT29 colon
  GI50: 1380 nM
  TGI: 3030 nM
T-47D breast
  GI50: 784 nM
  TGI: 3320 nM
UACC-62 melanoma
  GI50: 1720 nM
  TGI: 3340 nM
DU-145 prostate
  GI50: 1460 nM
  TGI: 2770 nM
OVCAR-5 ovarian
  GI50: 1910 nM
  TGI: 3750 nM
A498 renal
  GI50: 509 nM
  TGI: 2070 nM
HOP-92 NSCLC
  GI50: 1660 nM
  TGI: 3280 nM
SF-268 CNS
  GI50: 1480 nM
  TGI: 2860 nM
UO-31 renal
  GI50: 1160 nM
  TGI: 2510 nM
UACC-257 melanoma
  GI50: 1320 nM
  TGI: 2720 nM
SF-295 CNS
  GI50: 1780 nM
  TGI: 3870 nM
PC-3 prostate
  GI50: 1730 nM
  TGI: 3500 nM
OVCAR-3 ovarian
  GI50: 415 nM
  TGI: 1630 nM
MDA-MB-435
  GI50: 1540 nM
  TGI: 3940 nM
MALME-3M melanoma
  GI50: 1150 nM
  TGI: 2640 nM
SK-OV-3 ovarian
  GI50: 1810 nM
  TGI: 3230 nM
HOP-62 NSCLC
  GI50: 1780 nM
  TGI: 3240 nM
CCRF-CEM leukemia
  GI50: 611 nM
  TGI: 5160 nM
KM12 colon
  GI50: 1590 nM
  TGI: 2960 nM
HCT-116 colon
  GI50: 1330 nM
  TGI: 2940 nM
786-0 renal
  GI50: 1840 nM
  TGI: 3290 nM
SK-MEL-28 melanoma
  GI50: 1720 nM
  TGI: 3140 nM
SK-MEL-2 melanoma
  GI50: 1660 nM
  TGI: 3310 nM
RXF 393 renal
  GI50: 1430 nM
  TGI: 2780 nM
ACHN renal
  GI50: 1500 nM
  TGI: 2950 nM
BT-549 breast
  GI50: 1730 nM
  TGI: 3180 nM
SNB-75 CNS
  GI50: 1370 nM
  TGI: 2660 nM
TK-10 renal
  GI50: 1080 nM
  TGI: 2320 nM
SNB-19 CNS
  GI50: 1960 nM
  TGI: 4080 nM
NCI-H226 lung
  GI50: 2220 nM
  TGI: 6080 nM
SK-MEL-5 melanoma
  GI50: 1620 nM
  TGI: 3030 nM
HL-60(TB) leukemia
  GI50: 1170 nM
  TGI: 5260 nM
NCI-H23 lung
  GI50: 1900 nM
  TGI: 5050 nM
A549 NSCLC
  GI50: 1740 nM
  TGI: 3850 nM
MCF7 breast
  GI50: 1290 nM
  TGI: 3610 nM
SF-539 CNS
  GI50: 1800 nM
  TGI: 3350 nM
NCI-H522 lung
  GI50: 342 nM
  TGI: 1540 nM
K-562 leukemia
  GI50: 402 nM
  TGI: > 100000 nM
RPMI-8226 leukemia
  GI50: 2120 nM
  TGI: 6180 nM
